# ChEMBL document CHEMBL3885861, “Open TG-GATES”
# Organism: Rattus norvegicus
# Test: Open TG-GATES - Regimen: Single
# Assay type: toxicity, organism-based, Sprague-Dawley
# Parameters: regimen Single, gender Male, age 6 weeks
# Conditions: in vivo, po, route gavage; for gamma-GTP / ALP / ALT / AST / BUN / CRE / Ca / Cl / DBIL / GLC / IP / K / LDH / Na / PL / RALB / TBIL / TC / TG / TP: tissue Plasma; for Bas / Eos / Fbg / Hb / Ht / Lym / MCHC / MCV / Mono / Neu / PT / Plat / RBC / Ret / WBC / APTT: tissue Blood
# [1] = 300 mg/kg, 3 h, dose level Middle
# [2] = 300 mg/kg, 6 h, dose level Middle
# [3] = 300 mg/kg, 9 h, dose level Middle
# [4] = 300 mg/kg, 24 h, dose level Middle
# [5] = 1000 mg/kg, 3 h, dose level High
# [6] = 1000 mg/kg, 6 h, dose level High
# [7] = 1000 mg/kg, 9 h, dose level High
# [8] = 1000 mg/kg, 24 h, dose level High
compound,measurement,setting,value
O=C(O)c1cccnc1 [NIACIN],gamma-GTP,"100 mg/kg, 24 h, dose level Low",1 IU/L
same,Bas,[1],0%
same,Eos,[1],1%
same,Fbg,[1],304.8 mg/dL
same,Hb,[1],13.1 g/dL
same,Ht,[1],39.9%
same,Lym,[1],79.2%
same,MCHC,[1],32.9%
same,MCV,[1],64.5 fL
same,Mono,[1],2.4%
same,Neu,[1],16.2%
same,PT,[1],16 s
same,Plat,[1],118.4 x10_4/uL
same,RBC,[1],620.8 x10_4/ul
same,Ret,[1],8.5%
same,WBC,[1],82.2 x10_2/uL
same,ALP,[1],1554 IU/L
same,ALT,[1],38.4 IU/L
same,AST,[1],73 IU/L
same,BUN,[1],13.2 mg/dL
same,CRE,[1],0.2 mg/dL
same,Ca,[1],10.8 mg/dL
same,Cl,[1],105.6 meq/L
same,DBIL,[1],0.002 mg/dL
same,GLC,[1],179.4 mg/dL
same,IP,[1],9.3 mg/dL
same,K,[1],3.7 meq/L
same,LDH,[1],184 IU/L
same,Na,[1],140.2 meq/L
same,PL,[1],120.6 mg/dL
same,RALB,[1],3 g/dL
same,TBIL,[1],0 mg/dL
same,TC,[1],73.6 mg/dL
same,TG,[1],28.8 mg/dL
same,TP,[1],5.6 g/dL
same,gamma-GTP,[1],1.2 IU/L
same,Bas,[2],0%
same,Eos,[2],0.8%
same,Fbg,[2],329.8 mg/dL
same,Hb,[2],13.6 g/dL
same,Ht,[2],41.4%
same,Lym,[2],73%
same,MCHC,[2],32.9%
same,MCV,[2],62.9 fL
same,Mono,[2],2.4%
same,Neu,[2],23%
same,PT,[2],16.6 s
same,Plat,[2],119.6 x10_4/uL
same,RBC,[2],657.8 x10_4/ul
same,Ret,[2],8.4%
same,WBC,[2],82.7 x10_2/uL
same,ALP,[2],1294 IU/L
same,ALT,[2],40.2 IU/L
same,AST,[2],71.4 IU/L
same,BUN,[2],12.6 mg/dL
same,CRE,[2],0.1 mg/dL
same,Ca,[2],10.6 mg/dL
same,Cl,[2],106.4 meq/L
same,DBIL,[2],0.002 mg/dL
same,GLC,[2],182.4 mg/dL
same,IP,[2],9.6 mg/dL
same,K,[2],3.7 meq/L
same,LDH,[2],211.8 IU/L
same,Na,[2],140.6 meq/L
same,PL,[2],125.8 mg/dL
same,RALB,[2],3 g/dL
same,TBIL,[2],0.002 mg/dL
same,TC,[2],76.2 mg/dL
same,TG,[2],31 mg/dL
same,TP,[2],5.6 g/dL
same,gamma-GTP,[2],1.4 IU/L
same,APTT,[3],22.4 s
same,Bas,[3],0%
same,Eos,[3],0.8%
same,Fbg,[3],304.4 mg/dL
same,Hb,[3],13.1 g/dL
same,Ht,[3],39.5%
same,Lym,[3],71.8%
same,MCHC,[3],33.3%
same,MCV,[3],62.6 fL
same,Mono,[3],2.2%
same,Plat,[3],114.7 x10_4/uL
same,RBC,[3],631.4 x10_4/ul
same,Ret,[3],8.5%
same,WBC,[3],72.8 x10_2/uL
same,ALP,[3],1319 IU/L
same,ALT,[3],38.4 IU/L
same,AST,[3],72.2 IU/L
same,CRE,[3],0.2 mg/dL
same,Ca,[3],10.9 mg/dL
same,Cl,[3],105.2 meq/L
same,DBIL,[3],0.006 mg/dL
same,GLC,[3],176 mg/dL
same,IP,[3],9.1 mg/dL
same,K,[3],4.2 meq/L
same,LDH,[3],169.8 IU/L
same,Na,[3],140.8 meq/L
same,PL,[3],124.8 mg/dL
same,RALB,[3],2.8 g/dL
same,TBIL,[3],0.004 mg/dL
same,TC,[3],70.2 mg/dL
same,TG,[3],50.4 mg/dL
same,TP,[3],5.3 g/dL
same,gamma-GTP,[3],1.6 IU/L
same,Bas,[4],0%
same,Eos,[4],1%
same,Fbg,[4],343 mg/dL
same,Hb,[4],13.7 g/dL
same,Ht,[4],40%
same,Lym,[4],78.4%
same,MCHC,[4],34.2%
same,MCV,[4],62.5 fL
same,Mono,[4],2.6%
same,Neu,[4],16.6%
same,PT,[4],16 s
same,Plat,[4],120.8 x10_4/uL
same,RBC,[4],640 x10_4/ul
same,Ret,[4],6.4%
same,WBC,[4],98.1 x10_2/uL
same,ALP,[4],1858 IU/L
same,AST,[4],70.4 IU/L
same,BUN,[4],14 mg/dL
same,CRE,[4],0.1 mg/dL
same,Ca,[4],10.7 mg/dL
same,Cl,[4],104.4 meq/L
same,DBIL,[4],0 mg/dL
same,GLC,[4],192 mg/dL
same,IP,[4],7.9 mg/dL
same,K,[4],4.1 meq/L
same,LDH,[4],172.2 IU/L
same,Na,[4],139.8 meq/L
same,PL,[4],156.8 mg/dL
same,RALB,[4],3 g/dL
same,TBIL,[4],0 mg/dL
same,TC,[4],79.4 mg/dL
same,TG,[4],134.4 mg/dL
same,TP,[4],5.6 g/dL
same,gamma-GTP,[4],1.4 IU/L
same,Bas,[5],0%
same,Eos,[5],1.2%
same,Fbg,[5],303 mg/dL
same,Hb,[5],13.2 g/dL
same,Lym,[5],75.2%
same,MCHC,[5],32.8%
same,MCV,[5],62.8 fL
same,Mono,[5],2.4%
same,Neu,[5],20%
same,PT,[5],16.2 s
same,Plat,[5],114.5 x10_4/uL
same,RBC,[5],642.4 x10_4/ul
same,Ret,[5],8.7%
same,WBC,[5],70.3 x10_2/uL
same,ALP,[5],1421 IU/L
same,ALT,[5],43.6 IU/L
same,AST,[5],79.4 IU/L
same,BUN,[5],12.2 mg/dL
same,CRE,[5],0.2 mg/dL
same,Ca,[5],10.6 mg/dL
same,Cl,[5],106.2 meq/L
same,DBIL,[5],0 mg/dL
same,GLC,[5],187 mg/dL
same,IP,[5],9.4 mg/dL
same,K,[5],3.6 meq/L
same,LDH,[5],226.4 IU/L
same,Na,[5],140.8 meq/L
same,PL,[5],118.2 mg/dL
same,RALB,[5],3.1 g/dL
same,TBIL,[5],0 mg/dL
same,TC,[5],72.4 mg/dL
same,TG,[5],24.4 mg/dL
same,TP,[5],5.6 g/dL
same,gamma-GTP,[5],1.2 IU/L
same,Bas,[6],0%
same,Eos,[6],1%
same,Fbg,[6],311 mg/dL
same,Hb,[6],13.6 g/dL
same,Ht,[6],41.3%
same,Lym,[6],75.8%
same,MCHC,[6],32.8%
same,MCV,[6],64.6 fL
same,Mono,[6],2%
same,Neu,[6],20.4%
same,PT,[6],16.4 s
same,Plat,[6],121.3 x10_4/uL
same,RBC,[6],641.2 x10_4/ul
same,Ret,[6],8.2%
same,WBC,[6],74.6 x10_2/uL
same,ALP,[6],1566.4 IU/L
same,ALT,[6],35 IU/L
same,AST,[6],74.6 IU/L
same,BUN,[6],12.4 mg/dL
same,CRE,[6],0.2 mg/dL
same,Ca,[6],10.6 mg/dL
same,Cl,[6],107.6 meq/L
same,DBIL,[6],0 mg/dL
same,GLC,[6],181 mg/dL
same,IP,[6],9.2 mg/dL
same,K,[6],3.8 meq/L
same,LDH,[6],210.8 IU/L
same,Na,[6],139.6 meq/L
same,PL,[6],115.2 mg/dL
same,RALB,[6],3 g/dL
same,TBIL,[6],0 mg/dL
same,TC,[6],69.6 mg/dL
same,TG,[6],27.8 mg/dL
same,TP,[6],5.6 g/dL
same,gamma-GTP,[6],1.4 IU/L
same,APTT,[7],22.8 s
same,Bas,[7],0%
same,Eos,[7],1%
same,Fbg,[7],324 mg/dL
same,Hb,[7],13.3 g/dL
same,Lym,[7],67%
same,MCHC,[7],33%
same,MCV,[7],62 fL
same,Mono,[7],1.8%
same,Neu,[7],29.8%
same,PT,[7],15.6 s
same,Plat,[7],116.6 x10_4/uL
same,RBC,[7],651 x10_4/ul
same,Ret,[7],8%
same,WBC,[7],71.1 x10_2/uL
same,ALP,[7],1673.4 IU/L
same,ALT,[7],41.2 IU/L
same,AST,[7],75.2 IU/L
same,BUN,[7],13 mg/dL
same,CRE,[7],0.2 mg/dL
same,Ca,[7],10.8 mg/dL
same,Cl,[7],106.8 meq/L
same,DBIL,[7],0.004 mg/dL
same,GLC,[7],171.2 mg/dL
same,IP,[7],9.4 mg/dL
same,K,[7],3.9 meq/L
same,LDH,[7],198.2 IU/L
same,Na,[7],139.8 meq/L
same,PL,[7],101.2 mg/dL
same,RALB,[7],3.1 g/dL
same,TBIL,[7],0.002 mg/dL
same,TC,[7],60.6 mg/dL
same,TG,[7],17.2 mg/dL
same,TP,[7],5.5 g/dL
same,gamma-GTP,[7],1.2 IU/L
same,Bas,[8],0%
same,Eos,[8],1%
same,Fbg,[8],319 mg/dL
same,Hb,[8],13.3 g/dL
same,Ht,[8],39.7%
same,Lym,[8],71.4%
same,MCHC,[8],33.4%
same,MCV,[8],63.3 fL
same,Mono,[8],3%
same,Neu,[8],23.2%
same,PT,[8],15.9 s
same,Plat,[8],117.3 x10_4/uL
same,RBC,[8],627 x10_4/ul
same,Ret,[8],7.2%
same,WBC,[8],92.1 x10_2/uL
same,ALP,[8],1735.4 IU/L
same,ALT,[8],53 IU/L
same,AST,[8],75.4 IU/L
same,BUN,[8],16.6 mg/dL
same,CRE,[8],0.2 mg/dL
same,Ca,[8],10.5 mg/dL
same,Cl,[8],104.4 meq/L
same,DBIL,[8],0 mg/dL
same,GLC,[8],188.6 mg/dL
same,IP,[8],8.1 mg/dL
same,K,[8],4.1 meq/L
same,LDH,[8],174.8 IU/L
same,Na,[8],139.6 meq/L
same,PL,[8],144.2 mg/dL
same,RALB,[8],3 g/dL
same,TBIL,[8],0 mg/dL
same,TC,[8],70.6 mg/dL
same,TG,[8],119.2 mg/dL
same,TP,[8],5.4 g/dL
same,gamma-GTP,[8],1 IU/L
